# Test results reported in paper PMC7373766, “In vitro and in vivo Evaluation of in silico Predicted Pneumococcal UDPG:PP Inhibitors” (Frontiers in Microbiology, 2020).
# Assays:
# [1] = tested on: L. monocytogenes; parameters: method as in Kuenemann et al., 2018; settings: previous research; ref Kuenemann et al., 2018; cited from earlier work
# [2] = Cytotoxicity assay (resazurin); type: cell-based; settings: human, MRC-5 cells, maximal tested concentration 64 μM
# Method: MRC-5 cells were grown into polystyrene 96-well plates at an initial concentration of 1.5 × 10^5 cells/mL cells per well and incubated at 37°C and 5% CO2. In each well, 190 μL of cell suspension was added together with 10 μL of watery compound dilutions. Cell growth was compared to untreated control wells (100% cell growth) and medium-control wells (0% cell growth). After 3 days of incubation, cell viability was assessed using resazurin as described earlier. […] Tamoxifen was used as a positive control.
# [3] = tested on: S. pneumoniae; test: Galleria mellonella killing assay; type: in vivo
# Method: Larvae were purchased from a local vendor (Anaconda Reptiles, Kontich, Belgium) and stored in wood chips at 15°C before use. Four hours before use, larvae were put at 4°C. A sterile 20 μL Hamilton syringe was used to inject 10 μL aliquots of bacterial suspensions into the hindmost left proleg of Galleria mellonella. Bacteria were grown mid logarithmic phase for 6 h with or without 1, 10, 50 or 200 μM compounds, washed and resuspended in PBS before infection. The control group was injected with 10 μL PBS. A minimum of 10 larvae per group was used. Following the injections, larvae were incubated at 37°C in the dark for several days to allow progression of the pneumococcal infection. Every 24 h, larvae were scored as dead or alive. Larvae were determined dead when no signs of movement could be observed in response to external stimuli. For each strain, at least four independent repeats were carried out.
# [4] = tested on: S. pneumoniae polysaccharide capsule / bacterial size; test: FITC-dextran exclusion assay (degree of encapsulation); type: cell-based
# Method: The degree of encapsulation was determined by measuring the zone of exclusion of FITC-dextran (200 kDa, Sigma-Aldrich), as described previously ([Gates et al., 2004]; [Weinberger et al., 2009]; [Cools et al., 2018]). Briefly, bacteria were grown as described earlier until logarithmic phase with or without 50 μM of compound, centrifuged for 5 min at 5000 g and resuspended in PBS. To 100 μL of bacterial suspension 20 μL FITC-dextran (10 μg/mL in water) was added and 10 μL of this suspension was subsequently used to create wet mounts with cover slips. The slides were viewed on a Zeiss Observer.Z1 microscope with a 100x objective, and fluorescent images were captured with a Zeiss AxioCam MRm camera. The images were converted into grayscale and analyzed using ImageJ software. The area of FITC exclusion was determined. For each fluorescent image, a brightfield image was also recorded in order to count the number of bacteria per chain. For each strain, the mean of 150–300 cells was determined, and at least two images were collected from each of at least two independently prepared slides.
Structure (SMILES),Activity on L. monocytogenes [1],CC50 at 3 days [2],"Effect on larval survival, dose-response ([3]; strain TIGR4 grown with 1 μM compound)","Effect on larval survival, dose-response ([3]; strain TIGR4 grown with 10 μM compound)","Effect on larval survival, dose-response ([3]; strain TIGR4 grown with 50 μM compound)","Effect on larval survival, dose-response ([3]; strain TIGR4 grown with 200 μM compound)","Effect on bacterial size (area of FITC-dextran exclusion) ([4]; strain R6, 50 μM of compound)","Effect on bacterial size (area of FITC-dextran exclusion) ([4]; strain M23 galU mutant, 50 μM of compound)"
NCCCOc1cccc(C(=O)NC2CCC(n3cc(F)c(=O)[nH]c3=O)C(O)C2O)c1 (centres unmarked) [BDG 33920985],active,43.7 µM,,,,,,
NCCOc1cccc(C(=O)NC2CCCC(n3ccc(=O)[nH]c3=O)C2O)c1 (centres unmarked) [BDH 33910157],active,> 64 µM,inactive,inactive,significantly improved larval survival,significantly improved larval survival,no effect,
NCCCOc1cccc(C(=O)NC2CCCC(n3cnc4c(N)ncnc43)C2O)c1 (centres unmarked) [BDH 33910188],,> 64 µM,,,,,,no effect
